Source: US7297704B2, “Cycloalkyfused indole, benzothiophene, benzofuran and idene derivatives” (Wyeth, priority 2005, dated 2007)
Counter-ions that a name gives are not always drawn. Like-named read-outs stand apart in the source and are kept apart here. Marks after values point to notes of the source that are not given here.

Columns and labels:
[1] = molecular target: T1, cloned human 5-HT1A receptors (Homo sapiens, UniProt P08908); assay: 35S-GTPγS binding assay; assay type: biochemical; conditions: for IC50: superscript b, reversal of 8-OH-DPAT effect
T1 construct: expressed in transfected cells
T1 sequence (P08908 1-422): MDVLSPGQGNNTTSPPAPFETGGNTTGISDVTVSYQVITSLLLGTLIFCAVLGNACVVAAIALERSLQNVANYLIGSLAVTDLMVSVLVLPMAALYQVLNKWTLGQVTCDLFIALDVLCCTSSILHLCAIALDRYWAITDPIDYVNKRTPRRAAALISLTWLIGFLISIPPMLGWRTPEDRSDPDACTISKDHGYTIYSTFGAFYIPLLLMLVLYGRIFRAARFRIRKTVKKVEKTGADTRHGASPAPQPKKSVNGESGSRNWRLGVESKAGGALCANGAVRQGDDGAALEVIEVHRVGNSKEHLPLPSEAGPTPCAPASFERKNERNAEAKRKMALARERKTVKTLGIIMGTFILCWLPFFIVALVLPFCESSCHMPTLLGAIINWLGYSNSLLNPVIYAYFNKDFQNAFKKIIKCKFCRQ
Excerpt: The ^35S-GTPγS binding assay similar to that used by Lazareno and Birdsall (Br. J. Pharmacol., 1993, 109: 1120) was used to determine the test compound's ability to affect the binding of ^35S-GTPγS to membranes containing cloned human 5-HT1A receptors. Agonists produce an increase in binding whereas antagonists produce no increase but rather reverse the effects of the standard agonist 8-OH-DPAT. The test compound's maximum stimulatory effect is represented as the Emax, while its potency is defined by the EC50. The test compound's maximum inhibitory effect is represented as the Imax, while its potency is defined by the IC50. […] was used to determine maximum agonist or antagonist response.

Human 5-HT1A Receptor [2] = molecular target: T2, Human 5-HT1A Receptor (Homo sapiens, UniProt P08908); assay: cAMP RIA in human 5-HT1A receptor cell line; assay type: cell-based; conditions: CHO cells; for EC50: superscript a, read-out: c-AMP, (EC50)^a; for EC50 / Emax: forskolin stimulated cAMP; for Emax: superscript c, read-out: c-AMP, (Emax)^c; for IC50: superscript b, reversal of agonist activity, read-out: c-AMP, (IC50)^b
T2 construct: expressed in transfected cells; host or cells: CHO cells
T2 sequence (P08908 1-422): T1 sequence (P08908 1-422)
Method in brief: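 Stably transfected CHO cells preincubated in Krebs with 500 uM IBMX, then given forskolin (1 uM final) and test compound (0.1 and 1 uM initial screen) for 10 min at 37° C; cAMP measured by RIA as % inhibition. Antagonist mode: 6 concentrations preincubated 20 min before agonist plus forskolin; IC50 for reversal.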

h-5-HT-T = h-5-HT-T (Homo sapiens, UniProt P31645); assay: h-5-HT-T IC50 (Table 1, no method described)
Sequence of h-5-HT-T (P31645 whole entry): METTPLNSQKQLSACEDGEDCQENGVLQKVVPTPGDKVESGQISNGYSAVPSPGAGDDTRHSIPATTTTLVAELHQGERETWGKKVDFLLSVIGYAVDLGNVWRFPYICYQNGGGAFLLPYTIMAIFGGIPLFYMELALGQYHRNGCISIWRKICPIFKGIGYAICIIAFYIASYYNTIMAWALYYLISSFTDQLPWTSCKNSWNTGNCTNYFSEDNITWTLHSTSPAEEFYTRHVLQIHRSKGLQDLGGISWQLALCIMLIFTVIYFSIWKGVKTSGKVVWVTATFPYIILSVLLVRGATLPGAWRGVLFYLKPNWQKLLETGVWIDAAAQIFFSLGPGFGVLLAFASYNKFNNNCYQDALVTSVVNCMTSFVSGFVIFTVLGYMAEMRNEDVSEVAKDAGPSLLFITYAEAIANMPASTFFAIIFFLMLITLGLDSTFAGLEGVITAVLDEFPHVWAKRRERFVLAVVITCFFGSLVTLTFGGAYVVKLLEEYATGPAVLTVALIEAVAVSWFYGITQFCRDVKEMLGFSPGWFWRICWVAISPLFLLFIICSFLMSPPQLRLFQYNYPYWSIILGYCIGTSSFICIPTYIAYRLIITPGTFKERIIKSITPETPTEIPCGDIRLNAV

Human 5-HT1A Receptor [3] = molecular target: T2, Human 5-HT1A Receptor; assay: 8-OH-DPAT binding, human 5-HT1A receptor cell line; conditions: stably transfected CHO cells, 8-OH-DPAT ligand 1.5 nM; read-out: h5-HT1A Affinity, Ki
Method in brief: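 Membranes from CHO cells stably expressing human 5-HT1A, incubated 30 min at room temperature in 50 mM Tris pH 7.5 with 1.5 nM radioligand (8-OH-DPAT). Non-specific binding defined with […]; filtration on PEI-soaked GF/B filters. Single-point inhibition at […], then Ki for actives.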

serotonin transporter = molecular target: T3, serotonin transporter (Rattus norvegicus, UniProt P31652); assay: 3H-paroxetine binding to the serotonin transporter, rat frontal cortical membranes; conditions: values printed without parentheses, 3H-paroxetine 0.1 nM, read-out: rb-5-HH-T, Ki
T3 construct: frontal cortical membranes prepared from male S.D. rats; from tissue; host or cells: rat frontal cortex membranes (male Sprague-Dawley)
T3 sequence (P31652 whole entry): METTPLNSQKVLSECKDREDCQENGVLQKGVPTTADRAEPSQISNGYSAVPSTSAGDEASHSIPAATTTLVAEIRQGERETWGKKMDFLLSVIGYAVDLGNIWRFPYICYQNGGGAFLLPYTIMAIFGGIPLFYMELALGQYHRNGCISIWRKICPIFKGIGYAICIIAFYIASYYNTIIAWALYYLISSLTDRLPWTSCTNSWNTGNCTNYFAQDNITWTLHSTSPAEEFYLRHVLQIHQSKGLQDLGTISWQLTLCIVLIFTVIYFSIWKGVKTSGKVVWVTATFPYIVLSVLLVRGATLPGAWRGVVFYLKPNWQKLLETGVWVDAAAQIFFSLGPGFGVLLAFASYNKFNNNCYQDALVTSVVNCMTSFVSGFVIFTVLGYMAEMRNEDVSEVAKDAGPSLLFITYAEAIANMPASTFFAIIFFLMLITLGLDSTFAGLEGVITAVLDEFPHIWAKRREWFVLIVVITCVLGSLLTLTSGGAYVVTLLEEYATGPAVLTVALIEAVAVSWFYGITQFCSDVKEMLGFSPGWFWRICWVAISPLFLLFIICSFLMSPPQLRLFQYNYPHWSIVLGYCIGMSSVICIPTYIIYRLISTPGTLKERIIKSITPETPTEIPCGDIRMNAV
Method in brief: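 Male Sprague-Dawley rat frontal cortical membranes incubated with 0.1 nM ³H-paroxetine for 60 min at 25 °C, test compound at one to eight concentrations; 10 μM fluoxetine defined specific binding. Filtration separated bound ligand, counted by scintillation. IC50 from nonlinear regression, converted to Ki by Cheng–Prusoff.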

[4] = superscript d, maximum inhibitory effect

IC50 [1] [nM] | GTPγS, (Imax)^d [1, 4] [%^d] | Emax (Human 5-HT1A Receptor [2]; CHO) [%] | IC50 (Human 5-HT1A Receptor [2]) [nM] | SMILES | EC50 ([1]; superscript a, potency of stimulatory effect) [nM] | Emax ([1]; superscript c, maximum stimulatory effect) [%] | Imax (maximum inhibitory effect) [1, 4] [%] | EC50 (Human 5-HT1A Receptor [2]) [nM] | Emax (Human 5-HT1A Receptor [2]) [%] | IC50 (h-5-HT-T) [nM] | Ki (Human 5-HT1A Receptor [3]) [nM] | Ki (serotonin transporter) [nM]
155 | 95 | 62 |  | Cc1ccc2c3c(ccc2n1)OC[C@H](CNCC1CCc2sc4ccc(F)cc4c2C1)O3 (single isomer, unassigned) [31 diastereomer 1] |  |  |  |  |  | 337 | 1.14 | 9.9
 |  |  |  | Cc1ccc2c3c(ccc2n1)OC[C@H](CN(C)C[C@@H]1CCc2c(c4cc(F)ccc4n2C)C1)O3 [Example 69, {[(3R)-6-Fluoro-9-methyl-2,3,4,9-tetrahydro-1H-carbazol-3-yl]methyl}methyl{[(2S)-8-methyl-2,3-dihydro[1,4]dioxino[2,3-f]quinolin-2-yl]methyl}amine monohydrochloride monohydrate] |  |  |  | 548 | 63 | 35.8 ± 0.71 | 1590 | 220
 |  |  |  | Cc1ccc2c3c(ccc2n1)OC[C@H](CN(C)C[C@H]1CCc2c(c4cc(F)ccc4n2C)C1)O3 [Example 68, {[(3S)-6-Fluoro-9-methyl-2,3,4,9-tetrahydro-1H-carbazol-3-yl]methyl}methyl{[(2S)-8-methyl-2,3-dihydro[1,4]dioxino[2,3-f]quinolin-2-yl]methyl}amine monohydrochloride monohydrate] |  |  |  |  | 34.8 | 15.2 ± 0.74 | 3720 | 293
 |  | 70 |  | Cc1ccc2c3c(ccc2n1)OC[C@H](CNC1CCc2c([nH]c4ccc(F)cc24)C1)O3 (mixture of isomers) [Example 46, 6-Fluoro-N-{[(2S)-8-methyl-2,3-dihydro[1,4]dioxino[2,3-f]quinolin-2-yl]methyl}-2,3,4,9-tetrahydro-1H-carbazol-2-amine] |  |  |  | 155 |  | 52.5 ± 1.73 | 231 | 8.55
494 |  |  | 67.6 | Cc1ccc2c3c(ccc2n1)OC[C@H](CNCC1CCc2sc4ccccc4c2C1)O3 (single isomer, unassigned) [32 diastereomers 1] |  |  | 100 |  |  |  | 8.07 | > 1000
 |  |  |  | Cc1ccc2c3c(ccc2n1)OC[C@H](CN(CC1CCc2[nH]c4ccc(F)cc4c2C1)C1CCC1)O3 (stereo partly drawn) [Example 53, N-[(6-Fluoro-2,3,4,9-tetrahydro-1H-carbazol-3-yl)methyl]-N-{[(2S)-8-methyl-2,3-dihydro[1,4]dioxino[2,3-f]quinolin-2-yl]methyl}cyclobutanamine dihydrochloride dihydrate] |  |  |  | 126 | 68 | 39.1 ± 3.85 | 5740 | 498
 |  |  | 168 | Cc1ccc2c3c(ccc2n1)OC[C@H](CN[C@H]1CCc2c([nH]c4ccc(F)cc24)C1)O3 (single isomer, unassigned) [Example 48, dihydrochloride] |  |  |  |  |  | 31.9 ± 5.34 | 7.4 | 46.7 ± 2.07
 |  |  |  | Cc1ccc2c3c(ccc2n1)OC[C@H](CN(C[C@@H]1CCc2[nH]c4ccc(F)cc4c2C1)C1CCCC1)O3 [Example 59, N-{[(3R)-6-Fluoro-2,3,4,9-tetrahydro-1H-carbazol-3-yl]methyl}-N-{[(2S)-8-methyl-2,3-dihydro[1,4]dioxino[2,3-f]quinolin-2-yl]methyl}cyclopentanamine monohydrochloride monohydrate] |  |  |  | 431 | 81 | 115 ± 16.4 | 3120 | 362

SMILES | IC50 [1] [nM] | GTPγS, (Imax)^d [1, 4] [%^d] | Emax (Human 5-HT1A Receptor [2]; CHO) [%] | IC50 (Human 5-HT1A Receptor [2]) [nM] | EC50 ([1]; superscript a, potency of stimulatory effect) [nM] | Emax ([1]; superscript c, maximum stimulatory effect) [%] | Imax (maximum inhibitory effect) [1, 4] [%] | EC50 (Human 5-HT1A Receptor [2]) [nM] | Emax (Human 5-HT1A Receptor [2]) [%] | IC50 (h-5-HT-T) [nM] | Ki (Human 5-HT1A Receptor [3]) [nM] | Ki (serotonin transporter) [nM]
Cc1ccc2c3c(ccc2n1)OC[C@H](CNCCC1CCc2[nH]c4ccc(F)cc4c2C1)O3 (mixture of isomers) [Example 40, [2-(6-Fluoro-2,3,4,9-tetrahydro-1H-carbazol-3-yl)ethyl]{[(2S)-8-methyl-2,3-dihydro[1,4]dioxino[2,3-f]quinolin-2-yl]methyl}amine dihydrochloride] | 75 |  |  |  | 7.1 | 46 | 34 | 4.06 | 100 | 1.24 ± 0.16 | 680 | 48.4
